Data on 34 compounds can be found in PubChem BioAssay AID743475 (The Scripps Research Institute Molecular Screening Center, 2014).

The source made the active and inactive calls. No rule for the calls is given here.

This assay relates to OTUB2. The experiment in a line: late-stage follow-up, selectivity assay for CCHF vOTU protease inhibitor project, biochemical, fluorescence, assay provider (AID 743475). Particulars: recombinant OTUB2, fluorogenic ubiquitin substrate, active compounds read high.

For the compound `CN(C1=C(NC(=O)c2ccccc2)C(=O)c2ccccc2C1=O)C1CCS(=O)(=O)C1` (centres undefined), the inhibition (run 2, at 19.2 µM) is 57.8%.

Regarding `O=C1Cc2ccccc2C(=O)N1Cc1ccccc1`, where the note is “run 1, at 1.31 µM”, the inhibition was 68.4%.

For `COC1=C(N)C(=O)c2nc(C)ccc2C1=O`, the inhibition (run 1, at 4.98 µM) was 67.6%.

As for `O=C(NC1=CC(=O)c2ccccc2C1=O)c1ccccc1`, the inhibition (run 1, at 12.37 µM) was 46.4%.

Regarding `O=C(/C=C/c1ccc(O)cc1)c1ccc(NC2=C(N3CCCCC3)C(=O)c3ccccc3C2=O)cc1`, the inhibition (run 1, at 10.17 µM) is 30.7%.

For the compound `CCn1nc(/C=C/c2ccccc2)nc2c(=O)n(C)c(=O)nc1-2`, where the note is “run 1, at 0.49 µM”, the inhibition was 98.8%.

As for `COc1ccccc1NC(=O)COC(=O)c1ccc([N+](=O)[O-])s1`, the inhibition (run 1, at 35.07 µM) was 61.9%.

With `CC1(C)C=C2C(=NN(c3ccccc3)C(N)=C2C#N)CO1`, the inhibition (run 1, at 23.49 µM) was 78.2%.

For `O=C(COC(=O)c1ccc([N+](=O)[O-])s1)Nc1ncc(C(F)(F)F)cc1Cl`, the inhibition (run 1, at 27.79 µM) was 42.3%.

Take `CC1CCCC(NC(=O)COC(=O)c2ccc([N+](=O)[O-])s2)C1C` (centres undefined): for the setting “run 1, at 31.32 µM”, the inhibition was 33.7%.

For `COc1ccc2noc3c2c1C(=O)c1ccccc1-3`, the inhibition (run 1, at 6.28 µM) was 170%.

Take `O=C(c1ccco1)[C@@H]1[C@@H]2C(=O)N(c3ccc(Br)cc3)C(=O)[C@@H]2C2c3ccccc3C=CN21` (some centres undefined): the inhibition (run 1, at 11.01 µM) was 91.8%.

On to `COC(CNC(=O)c1ccc2c3c(onc13)-c1ccccc1C2=O)OC`, for which the inhibition (run 1, at 24.19 µM) was 58.5%.

Turning to `O=C1Cc2ccccc2C(=O)N1CCc1ccccc1`, the inhibition (run 2, at 3.02 µM) was 14.9% (inactive).

As to `Cc1ccccc1-c1cc2c(nn1)-c1ccccc1C2=O`, under “run 2, at 4.46 µM”, the inhibition was 23.3%.

Regarding `CC1COCC(C)N1C1=C(Cl)C(=O)c2ccccc2C1=O` (centres undefined), the inhibition (run 1, at 14.67 µM) was 23.6%.

`O=C(COC(=O)c1ccc([N+](=O)[O-])s1)Nc1ccc(F)cc1`: the inhibition (run 1, at 26.34 µM) was 40.3%.

For the compound `O=c1[nH]c(Nc2ccccc2)cc2cc(Br)ccc12`, the inhibition (run 1, at 1.45 µM) was 57.8%.

On to `Cc1ccc(N2C(=O)[C@@H]3[C@H](C2=O)C2c4ccccc4C=CN2[C@@H]3C(=O)c2ccco2)cc1` (some centres undefined), for which the inhibition (run 1, at 5.2 µM) was 55.4%.

Take `NS(=O)(=O)c1ccc(NC(=O)COC(=O)c2ccc([N+](=O)[O-])s2)cc1`: where the note is “run 1, at 29.01 µM”, the inhibition is 37.5%.

In the case of `O=C(OCc1nnc(-c2ccccc2)o1)c1ccc([N+](=O)[O-])s1`, where the note is “run 1, at 26.04 µM”, the inhibition was 46.9%.

For the compound `COc1cc(NC(=O)COC(=O)c2ccc([N+](=O)[O-])s2)cc(OC)c1OC`, the inhibition (run 1, at 21.72 µM) was 41.2%.

For `Cc1ccc(NC2=CC(=O)C(=O)c3ccccc32)cc1`, the inhibition (run 1, at 12.24 µM) is 78.7%.

Take `O=C1C=C(Nc2ccccc2)c2ccccc2C1=O`: the inhibition (run 1, at 15.55 µM) is 75.6%.

On to `CCc1cc[n+](C2=C(NS(=O)(=O)c3cccs3)C(=O)c3ccccc3C2=O)cc1`, for which the inhibition (run 1, at 14.16 µM) was 54%.

Regarding `NS(=O)(=O)c1ccc(NC2=CC(=O)C(=O)c3ccccc32)cc1`, the inhibition (run 1, at 11.51 µM) was 78.7%.

On to `O=C(COC(=O)c1ccc([N+](=O)[O-])s1)NCc1ccc(F)cc1`, for which the inhibition (run 1, at 40.58 µM) was 39.9%.

`Cn1nc(-c2ccccn2)nc2c(=O)n(C)c(=O)nc1-2`: the inhibition (run 1, at 1.16 µM) was 98%.

As for `COc1cc(Br)c(C(=O)c2nccc3cc(OC)c(OC)cc23)cc1OC`, the inhibition (run 1, at 1.13 µM) was 17.2% (inactive).

`O=C1Cc2ccccc2C(=O)N1`: the inhibition (run 1, at 0.6 µM) was 67.3%.

Regarding `O=C(NC1=C(NC2CCS(=O)(=O)C2)C(=O)c2ccccc2C1=O)c1ccccc1` (centres undefined), the inhibition (run 1, at 14.2 µM) was 56.9%.

Take `Cc1c(Cl)cnc(NC(=O)COC(=O)c2ccc([N+](=O)[O-])s2)c1Cl`: the inhibition (run 1, at 20.44 µM) was 49.9%.

As for `Cc1ccc2c(c1C)-c1c(ccc(C)c1C)C(=O)C2=O`, for the setting “run 1, at 18.9 µM”, the inhibition is 60.1%.

On to `CCOC(=O)N=Nc1c2ccccc2c2nc3no[nH]c3nc12`, for which the inhibition (run 1, at 7.75 µM) is 37.8%.

For orientation: inhibition means the change of the read-out against control, counted positive when it falls.
